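Growth conditions: 96-well plates. Treatment: test compound, 48 hours, 5 concentrations. Analysis: linear interpolation between bracketing concentrations; unreached endpoints set to highest concentration. Definition used: TGI = concentration required for complete inhibition of growth.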

Holding throughout (experiment): NCI anticancer screen, dose series, 48 h
Assay [1] deals with DU-145 prostate.
The subject of assay [2] is 786-0 renal.
Assay [3] has as its system SK-MEL-5 melanoma.
Assay [4] relates to CAKI-1 renal.
The test system of assay [5] is HCT-15 colon.
Assay [6] deals with HT29 colon.
For assay [7], the system named is SF-268 CNS.
The test system of assay [8] is SW-620 colon.
The subject of assay [9] is HS 578T breast.
In assay [10] the test system is HCC-2998 colon.
In assay [11] the test system is T-47D breast.
The test system of assay [12] is NCI-H522 lung.
For assay [13], the system named is SNB-75 CNS.
For assay [14], the system named is BT-549 breast.
For assay [15], the system named is NCI-H23 lung.
In assay [16] the test system is SK-MEL-2 melanoma.
For assay [17], the system named is TK-10 renal.
Assay [18] concerns A549 NSCLC.
Assay [19] concerns HOP-92 NSCLC.
In assay [20] the test system is IGROV1 ovarian.

For `CCc1c(CN)c(CC)c(CNC2=NCCN2)c(CC)c1CNC1=NCCN1`, the TGI in assay [1], in [2], in assay [3], in assay [4], in [5] and in [6] was more than 100 µM in each case. In addition, the TGI in assay [7], in assay [8], in [9], in [10], in assay [11] and in assay [12] was more than 100 µM each time. Also, the TGI in assay [13], in [14], in assay [15], in [16], in assay [17] and in assay [18] was more than 100 µM in each case. The TGI in assay [19] and in [20] was more than 100 µM in each case.
On to `Cn1c(NNc2ccccc2)cc(=O)[nH]c1=O`, for which the TGI in assay [1] is more than 100 µM; in assay [2] it was 44.2 µM; in assay [3], 70.1 µM; in assay [4] it was more than 100 µM; in assay [5] it was more than 100 µM; in assay [6] it was more than 100 µM. Moreover, the TGI was more than 100 µM in assay [7]; more than 100 µM in [8]; more than 100 µM in assay [9]; 97.5 µM in assay [10]; more than 100 µM in assay [11]; 40.5 µM in assay [12]. The TGI in assay [13], in assay [14], in [15], in assay [16], in assay [17] and in assay [18] was more than 100 µM in each case. Further, the TGI in assay [19] and in assay [20] was more than 100 µM each time.
Turning to `CN(C)CCNc1nc2ccccc2c2c1CCCC2`, the TGI is more than 100 µM in assay [1]; 34.2 µM in [2]; 32.4 µM in assay [3]; 44.7 µM in [4]; more than 100 µM in assay [5]; 95.1 µM in [6]. Further, the TGI in assay [7] is more than 100 µM; in [8], 86 µM; in [9] it was more than 100 µM; in assay [10], 25.6 µM; in assay [11], 40.4 µM; in assay [12], 33.1 µM. Moreover, the TGI was 56.3 µM in assay [13]; more than 100 µM in assay [14]; more than 100 µM in [15]; 32.5 µM in assay [16]; 29.7 µM in [17]; more than 100 µM in assay [18]. The TGI amounted to 58.3 µM in assay [19] and 38.3 µM in assay [20].
`CCOc1ccc2nc3nc(=O)[nH]c(C)c3c(NCCCN(CC)CC)c2c1`: the TGI in assay [1], in assay [2], in assay [3], in [4], in assay [5] and in assay [6] was more than 100 µM in each case. Further, the TGI in assay [7], in [8], in [9], in assay [10], in assay [11] and in assay [12] was more than 100 µM each time. Further, the TGI in assay [13], in assay [14], in assay [15], in assay [16], in assay [17] and in assay [18] was more than 100 µM throughout. Also, the TGI in assay [19] and in [20] was more than 100 µM in each case.
Consider `CC(=O)Nc1ccc(NS(=O)(=O)c2ccc3nc(C)n(NS(=O)(=O)c4ccc(NC(C)=O)cc4)c(=O)c3c2)cc1`, for which the TGI in assay [1], in [2], in [3], in assay [4], in assay [5] and in [6] was more than 100 µM each time. Also, the TGI in assay [7], in assay [8], in assay [9], in assay [10], in assay [11] and in [12] was more than 100 µM each time. Moreover, the TGI in [13], in assay [14], in assay [15], in [16], in assay [17] and in [18] was more than 100 µM each time. Also, the TGI in assay [19] and in [20] was more than 100 µM in each case.

For the origin of these results see PubChem BioAssay (NCI).
